The term EC50 denotes the concentration needed to bring the measured effect to its halfway point.

Structures can show the parent of a compound that is named as a salt. Where only a bound is given, the exact number is not on record here.

Tested on in one data set: not listed separately
Description: in vitro. Particulars: human.
With `CCc1cc(F)cc2[nH]c(C(=O)N3CCn4nc(NCC5CCOC5)cc4C3)cc12` (centres unmarked) [Example 29, 5-(4-ethyl-6-fluoro-1H-indole-2-carbonyl)-N-[(oxolan-3-yl)methyl]-4H,5H,6H,7H-pyrazolo[1,5-a]pyrazin-2-amine], the CC50 was over 10 µM.

For the molecule `O=C(Nc1cc2n(n1)CCN(C(=O)c1cc3ccccc3[nH]1)C2)C1CC2CC1CN2` (centres unmarked) [Example 82, N-[5-(1H-indole-2-carbonyl)-4H,5H,6H,7H-pyrazolo[1,5-a]pyrazin-2-yl]-2-azabicyclo[2.2.1]heptane-5-carboxamide dihydrochloride], the CC50 was over 10 µM.

Molecule `O=C(Nc1cc2n(n1)CCN(C(=O)c1cc3ccccc3[nH]1)C2)[C@H]1CCNC[C@@H]1F` [Example 86, (3R,4R)-3-fluoro-N-[5-(1H-indole-2-carbonyl)-4H,5H,6H,7H-pyrazolo[1,5-a]pyrazin-2-yl]piperidine-4-carboxamide dihydrochloride] displayed a CC50 of over 10 µM.

Regarding `CC1(S(=O)(=O)Nc2cc3n(n2)CCN(C(=O)c2cc4ccccc4[nH]2)C3)CC1` [Example 44, N-[5-(1H-indole-2-carbonyl)-4H,5H,6H,7H-pyrazolo[1,5-a]pyrazin-2-yl]-1-methylcyclopropane-1-sulfonamide], the CC50 is over 10 µM.

For a further data set, the system named is HepAD38 cells. Description: Cell viability assay (AlamarBlue cytotoxicity). Particulars: HepAD38 cells in the presence of 0.3 μg/ml tetracycline, six days incubation. For orientation: Resazurin is reduced to fluorescent resorufin, in cell work by metabolically active cells.
“3-yl)methyl]-4H,5H, 6H,7H-pyrazolo[1,5-a]pyrazin-2-amine [Example 25]”: the CC50 is over 10 µM.

The subject of the next data set is HBV.
Assay: not given
Particulars: Hepatitis B virus, HePAD38, 144 h, read-out: Cell Activity (EC50).
Turning to `CCc1cc(F)cc2[nH]c(C(=O)N3CCn4nc(NCC5CCOC5)cc4C3)cc12` (centres unmarked) [Example 29, 5-(4-ethyl-6-fluoro-1H-indole-2-carbonyl)-N-[(oxolan-3-yl)methyl]-4H,5H,6H,7H-pyrazolo[1,5-a]pyrazin-2-amine], the half-maximal effective concentration (EC50) was under 1 µM. On to `O=C(Nc1cc2n(n1)CCN(C(=O)c1cc3ccccc3[nH]1)C2)C1CC2CC1CN2` (centres unmarked) [Example 82, N-[5-(1H-indole-2-carbonyl)-4H,5H,6H,7H-pyrazolo[1,5-a]pyrazin-2-yl]-2-azabicyclo[2.2.1]heptane-5-carboxamide dihydrochloride], for which the EC50 was in the range of 1 to 10 µM. The same measure, in the same setting: the value for `O=C(Nc1cc2n(n1)CCN(C(=O)c1cc3ccccc3[nH]1)C2)[C@H]1CCNC[C@@H]1F` [Example 86, (3R,4R)-3-fluoro-N-[5-(1H-indole-2-carbonyl)-4H,5H,6H,7H-pyrazolo[1,5-a]pyrazin-2-yl]piperidine-4-carboxamide dihydrochloride] was under 1 µM.

`CC1(S(=O)(=O)Nc2cc3n(n2)CCN(C(=O)c2cc4ccccc4[nH]2)C3)CC1` [Example 44, N-[5-(1H-indole-2-carbonyl)-4H,5H,6H,7H-pyrazolo[1,5-a]pyrazin-2-yl]-1-methylcyclopropane-1-sulfonamide]: the EC50 was under 1 µM.

For the molecule `O=C(c1cc2ccccc2[nH]1)N1CCn2nc(NS(=O)(=O)C3CC3)cc2C1` [Example 5, N-[5-(1H-indole-2-carbonyl)-4H,5H,6H,7H-pyrazolo[1,5-a]pyrazin-2-yl]cyclopropanesulfonamide], the EC50 was under 1 µM. Same read-out and setting: for `COC(=O)N1CCC(C(=O)Nc2cc3n(n2)CCN(C(=O)c2cc4ccccc4[nH]2)C3)CC1` [Example 58, Methyl 4-{[5-(1H-indole-2-carbonyl)-4H,5H,6H,7H-pyrazolo[1,5-a]pyrazin-2-yl]carbamoyl}piperidine-1-carboxylate] the value was under 1 µM; for `CC1Cn2nc(N)cc2CN1C(=O)c1cc2c(Cl)cccc2[nH]1` (centres unmarked) [Example 9, 5-(4-chloro-1H-indole-2-carbonyl)-6-methyl-4H,5H,6H,7H-pyrazolo[15-a]pyrazin-2-amine], under 1 µM. With `COCC1(CNc2cc3n(n2)CCN(C(=O)c2cc4ccccc4[nH]2)C3)CC1` [Example 54, 5-(1H-indole-2-carbonyl)-N-{[1-(methoxymethyl)cyclopropyl]methyl}-4H,5H,6H,7H-pyrazolo[1,5-a]pyrazin-2-amine], the EC50 is under 1 µM. With `O=C(Nc1cc2n(n1)CCN(C(=O)c1cc3ccccc3[nH]1)C2)C1CNC1` [Example 4, N-[5-(1H-indole-2-carbonyl)-4H,5H,6H,7H-pyrazolo[1,5-a]pyrazin-2-yl]azetidine-3-carboxamide Hydrochloride], the concentration for a half-maximal effect (EC50) lay in the range of 1 to 10 µM.

For `O=C(c1cc2c(Cl)cccc2[nH]1)N1CCn2nc(NC3CCC(O)CC3)cc2C1` (centres unmarked) [Example 3, 4-{[5-(4-chloro-1H-indole-2-carbonyl)-4H,5H,6H,7H-pyrazolo[1,5-a]pyrazin-2-yl]amino}cyclohexan-1-ol], the EC50 was under 1 µM.

Consider `CCS(=O)(=O)Nc1cc2n(n1)CCN(C(=O)c1cc3ccccc3[nH]1)C2` [Example 45, N-[5-(1H-indole-2-carbonyl)-4H,5H,6H,7H-pyrazolo[1,5-a]pyrazin-2-yl]ethane-1-sulfonamide], for which the EC50 was under 1 µM.

Turning to `Nc1cc2n(n1)CCN(C(=O)c1cc3c(Cl)cccc3[nH]1)C2` [Example 32, 5-(4-chloro-1H-indole-2-carbonyl)-4H,5H,6H,7H-pyrazolo[1,5-a]pyrazin-2-amine], the EC50 was under 1 µM. Same read-out and setting: for `O=C(c1cc2c(Cl)cccc2[nH]1)N1CCn2nc(NS(=O)(=O)C3CC3)cc2C1` [Example 37, N-[5-(4-chloro-1H-indole-2-carbonyl)-4H,5H,6H,7H-pyrazolo[1,5-a]pyrazin-2-yl]cyclopropanesulfonamide] the value was under 1 µM; for `O=C(c1cc2ccccc2[nH]1)N1CCn2nc(N[C@H]3C[C@H](O)C3)cc2C1` [Example 76, (1r,3r)-3-{[5-(1H-indole-2-carbonyl)-4H,5H,6H,7H-pyrazolo[1,5-a]pyrazin-2-yl]amino}cyclobutan-1-ol], under 1 µM; for `O=C(Nc1cc2n(n1)CCN(C(=O)c1cc3ccccc3[nH]1)C2)C1CCNCC1(F)F` (centres unmarked) [Example 73, 3,3-difluoro-N-[5-(1H-indole-2-carbonyl)-4H,5H,6H,7H-pyrazolo[1,5-a]pyrazin-2-yl]piperidine-4-carboxamide], under 1 µM. Same read-out and setting: the value for `Cc1noc(C)c1S(=O)(=O)Nc1cc2n(n1)CCN(C(=O)c1cc3ccccc3[nH]1)C2` [Example 46, N-[5-(1H-indole-2-carbonyl)-4H,5H,6H,7H-pyrazolo[1,5-a]pyrazin-2-yl]-3,5-dimethyl-1,2-oxazole-4-sulfonamide] was under 1 µM; that for `O=C(c1cc2c(Cl)c(F)ccc2[nH]1)N1CCn2nc(NS(=O)(=O)C3CC3)cc2C1` [Example 36, N-[5-(4-chloro-5-fluoro-1H-indole-2-carbonyl)-4H,5H,6H,7H-pyrazolo[1,5-a]pyrazin-2-yl]cyclopropanesulfonamide] was under 1 µM; that for `O=C(c1cc2ccccc2[nH]1)N1CCn2nc(NCC3CCOCC3)cc2C1` [Example 15, 5-(1H-indole-2-carbonyl)-N-[(oxan-4-yl)methyl]-4H,5H,6H,7H-pyrazolo[1,5-a]pyrazin-2-amine] was under 1 µM. Consider `CS(=O)(=O)N1CCC(C(=O)Nc2cc3n(n2)CCN(C(=O)c2cc4ccccc4[nH]2)C3)CC1` [Example 64, N-[5-(1H-indole-2-carbonyl)-4H,5H,6H,7H-pyrazolo[1,5-a]pyrazin-2-yl]-1-methanesulfonylpiperidine-4-carboxamide], for which the EC50 was under 1 µM. Same read-out and setting: for `O=C(c1cc2ccccc2[nH]1)N1CCn2nc(NCC3(O)CC(F)(F)C3)cc2C1` [Example 83, 3,3-difluoro-1-({[5-(1H-indole-2-carbonyl)-4H,5H,6H,7H-pyrazolo[1,5-a]pyrazin-2-yl]amino}methyl)cyclobutan-1-ol] the value was under 1 µM. The same measure, in the same setting: the value for `O=C(Nc1cc2n(n1)CCN(C(=O)c1cc3ccccc3[nH]1)C2)C1CCN(c2ccncc2)CC1` [Example 57, N-[5-(1H-indole-2-carbonyl)-4H,5H,6H,7H-pyrazolo[1,5-a]pyrazin-2-yl]-1-(pyridin-4-yl)piperidine-4-carboxamide] was under 1 µM. Turning to `O=C(c1cc2ccccc2[nH]1)N1CCn2nc(N[C@H]3C[C@@H](O)C3)cc2C1` [Example 91, (1s,3s)-3-{[5-(1H-indole-2-carbonyl)-4H,5H,6H,7H-pyrazolo[1,5-a]pyrazin-2-yl]amino}cyclobutan-1-ol], the EC50 is under 1 µM.

As to `O=C(c1cc2ccccc2[nH]1)N1CCn2nc(NC3CCOC3)cc2C1` (centres unmarked) [Example 1, 5-(1H-indole-2-carbonyl)-N-(oxolan-3-yl)-4H,5H,6H,7H-pyrazolo[1,5-a]pyrazin-2-amine], the EC50 was in the range of 1 to 10 µM.

For the molecule `CN1CC[C@H](C(=O)Nc2cc3n(n2)CCN(C(=O)c2cc4ccccc4[nH]2)C3)[C@@H](F)C1` [Example 89, (3R,4R)-3-fluoro-N-[5-(1H-indole-2-carbonyl)-4H,5H,6H,7H-pyrazolo[1,5-a]pyrazin-2-yl]-1-methylpiperidine-4-carboxamide], the EC50 is under 1 µM. Still for that read-out and setting: the value for `O=C(Nc1cc2n(n1)CCN(C(=O)c1cc3ccccc3[nH]1)C2)C1CCN(CCO)CC1` [Example 62, 1-(2-hydroxyethyl)-N-[5-(1H-indole-2-carbonyl)-4H,5H,6H,7H-pyrazolo[1,5-a]pyrazin-2-yl]piperidine-4-carboxamide] was 1 to 10 µM; that for `CN1CCC(C(=O)Nc2cc3n(n2)CCN(C(=O)c2cc4ccccc4[nH]2)C3)C(F)(F)C1` (centres unmarked) [Example 87, 3,3-difluoro-N-[5-(1H-indole-2-carbonyl)-4H,5H,6H,7H-pyrazolo[1,5-a]pyrazin-2-yl]-1-methylpiperidine-4-carboxamide] was under 1 µM; that for `CCc1cccc2[nH]c(C(=O)N3CCn4nc(NCC5CCOC5)cc4C3)cc12` (centres unmarked) [Example 17, 5-(4-ethyl-1H-indole-2-carbonyl)-N-[(oxolan-3-yl)methyl]-4H,5H,6H,7H-pyrazolo[1,5-a]pyrazin-2-amine] was under 1 µM. With `CN1CCC(C(=O)Nc2cc3n(n2)CCN(C(=O)c2cc4ccccc4[nH]2)C3)C(F)C1` (centres unmarked) [Example 88, 3-fluoro-N-[5-(1H-indole-2-carbonyl)-4H,5H,6H,7H-pyrazolo[1,5-a]pyrazin-2-yl]-1-methylpiperidine-4-carboxamide], the EC50 was under 1 µM. As for `O=C(Nc1cc2n(n1)CCN(C(=O)c1cc3c(F)cc(F)cc3[nH]1)C2)C1CCOC1` (centres unmarked) [Example 22, N-[5-(4,6-difluoro-1H-indole-2-carbonyl)-4H,5H,6H,7H-pyrazolo[1,5-a]pyrazin-2-yl]oxolane-3-carboxamide], the EC50 is under 1 µM.

Consider `COC1(CNc2cc3n(n2)CCN(C(=O)c2cc4ccccc4[nH]2)C3)CCC1` [Example 60, 5-(1H-indole-2-carbonyl)-N-[(1-methoxycyclobutyl)methyl]-4H,5H,6H,7H-pyrazolo[1,5-a]pyrazin-2-amine], for which the EC50 was under 1 µM. The same measure, in the same setting: the value for `O=C(c1cc2c(Cl)cc(F)cc2[nH]1)N1CCn2nc(NCC3CCOC3)cc2C1` (centres unmarked) [Example 27, 5-(4-chloro-6-fluoro-1H-indole-2-carbonyl)-N-[(oxolan-3-yl)methyl]-4H,5H,6H,7H-pyrazolo[1,5-a]pyrazin-2-amine] was under 1 µM. `O=C(c1cc2c(F)cc(F)cc2[nH]1)N1CCn2nc(NCC3CCOC3)cc2C1` (centres unmarked) [Example 28, 5-(4,6-difluoro-1H-indole-2-carbonyl)-N-[(oxolan-3-yl)methyl]-4H,5H,6H,7H-pyrazolo[1,5-a]pyrazin-2-amine]: the EC50 was under 1 µM.

Still in this data set, the particulars now being: read-out: Cell Activity (EC50); HBV DNA in HepAD38 supernatant at day 6, qPCR.
On to “3-yl)methyl]-4H,5H, 6H,7H-pyrazolo[1,5-a]pyrazin-2-amine [Example 25]”, for which the EC50 is under 1 µM.

Values taken from US20220081444A1, “6,7-DIHYDRO-4H-PYRAZOLO[1,5-A]PYRAZINE INDOLE-2-CARBOXAMIDES ACTIVE AGAINST THE HEPATITIS B VIRUS (HBV)” (AiCuris GmbH & Co. KG, priority 2018, published 2022).
